Data: PubChem BioAssay AID1745844 (Carcinogenic Potency Database (CPDB), 2022)
Values joined by “and” are separate entries in the source; they are usually repeats but may differ in a detail not shown here. Equal entries are not always repeated. Active and inactive are the calls of the source. No rule for the calls is given here.

System: rodent lifetime carcinogenesis bioassay, tumor incidence TD50
Assay: carcinogenic potency in animals, long-term in vivo studies, CPDB compilation (AID 1745844)
[1] = mouse, strain Swiss albino, males, in drinking water, site: lung, lesion: adenoma, dosed 100 weeks, study length 100 weeks

## Nc1ccccc1N
mouse, strain CD-1 HaM/ICR, females, in feed, site: any site (literature study), lesion: several types, types named in the paper, dosed 77 weeks, study length 90 weeks
  TD50: 676 mg/kg/day
mouse, strain CD-1 HaM/ICR, females, in feed, site: liver, lesion: hepatoma, dosed 77 weeks, study length 90 weeks
  TD50: 611 mg/kg/day
mouse, strain CD-1 HaM/ICR, females, in feed, site: liver, lesion: several types, types named in the paper, dosed 77 weeks, study length 90 weeks
  TD50: 507 mg/kg/day
mouse, strain CD-1 HaM/ICR, females, in feed, site: lung, lesion: several types, types named in the paper, dosed 77 weeks, study length 90 weeks
  TD50: 2260 mg/kg/day (inactive)
mouse, strain CD-1 HaM/ICR, males, in feed, site: any site (literature study), lesion: several types, types named in the paper, dosed 77 weeks, study length 86 weeks
  TD50: 1970 mg/kg/day
mouse, strain CD-1 HaM/ICR, males, in feed, site: liver, lesion: hepatoma, dosed 77 weeks, study length 86 weeks
  TD50: 921 mg/kg/day and 1110 mg/kg/day
mouse, strain CD-1 HaM/ICR, males, in feed, site: liver, lesion: several types, types named in the paper, dosed 77 weeks, study length 86 weeks
  TD50: 921 mg/kg/day
mouse, strain CD-1 HaM/ICR, males, in feed, site: lung, lesion: several types, types named in the paper, dosed 77 weeks, study length 86 weeks
  TD50: 3210 mg/kg/day (inactive)
rat, strain Charles River CD (Sprague-Dawley), males, in feed, site: liver, lesion: hepatoma, dosed 77 weeks, study length 107 weeks
  TD50: 248 mg/kg/day and 315 mg/kg/day
rat, strain Charles River CD (Sprague-Dawley), males, in feed, site: liver, lesion: several types, types named in the paper, dosed 77 weeks, study length 107 weeks
  TD50: 248 mg/kg/day

## O=c1cc[nH]c(=O)[nH]1
mouse, strain B6C3F1, females, in feed, site: liver, lesion: hyperplastic nodule, dosed 96 weeks, study length 96 weeks
  TD50: 18200 mg/kg/day
mouse, strain B6C3F1, females, in feed, site: urinary bladder, lesion: carcinoma, in situ, dosed 96 weeks, study length 96 weeks
  TD50: 56700 mg/kg/day
mouse, strain B6C3F1, females, in feed, site: urinary bladder, lesion: leiomyosarcoma, dosed 96 weeks, study length 96 weeks
  TD50: 56700 mg/kg/day
mouse, strain B6C3F1, females, in feed, site: urinary bladder, lesion: transitional-cell carcinoma, dosed 96 weeks, study length 96 weeks
  TD50: 1450 mg/kg/day
mouse, strain B6C3F1, males, in feed, site: liver, lesion: hyperplastic nodule, dosed 96 weeks, study length 96 weeks
  TD50: 48800 mg/kg/day
mouse, strain B6C3F1, males, in feed, site: lung, lesion: adenocarcinoma, dosed 96 weeks, study length 96 weeks
  TD50: 52300 mg/kg/day
mouse, strain B6C3F1, males, in feed, site: urinary bladder, lesion: squamous-cell carcinoma, dosed 96 weeks, study length 96 weeks
  TD50: 25700 mg/kg/day
mouse, strain B6C3F1, males, in feed, site: urinary bladder, lesion: transitional-cell carcinoma, dosed 96 weeks, study length 96 weeks
  TD50: 25700 mg/kg/day
rat, strain F344/DuCrj, females, in feed, site: kidney/pelvis, lesion: carcinoma, dosed 104 weeks, study length 104 weeks
  TD50: 9760 mg/kg/day
rat, strain F344/DuCrj, females, in feed, site: urinary bladder, lesion: squamous-cell papilloma, dosed 104 weeks, study length 104 weeks
  TD50: 29300 mg/kg/day
rat, strain F344/DuCrj, females, in feed, site: urinary bladder, lesion: transitional-cell carcinoma, dosed 104 weeks, study length 104 weeks
  TD50: 5640 mg/kg/day
rat, strain F344/DuCrj, females, in feed, site: urinary bladder, lesion: transitional-cell papilloma, dosed 104 weeks, study length 104 weeks
  TD50: 4260 mg/kg/day
rat, strain F344/DuCrj, males, in feed, site: kidney/pelvis, lesion: carcinoma, dosed 104 weeks, study length 104 weeks
  TD50: 3090 mg/kg/day
rat, strain F344/DuCrj, males, in feed, site: kidney/pelvis, lesion: papilloma, dosed 104 weeks, study length 104 weeks
  TD50: 5750 mg/kg/day
rat, strain F344/DuCrj, males, in feed, site: urinary bladder, lesion: leiomyosarcoma, dosed 104 weeks, study length 104 weeks
  TD50: 24300 mg/kg/day
rat, strain F344/DuCrj, males, in feed, site: urinary bladder, lesion: squamous-cell carcinoma, dosed 104 weeks, study length 104 weeks
  TD50: 7800 mg/kg/day
rat, strain F344/DuCrj, males, in feed, site: urinary bladder, lesion: squamous-cell papilloma, dosed 104 weeks, study length 104 weeks
  TD50: 24300 mg/kg/day
rat, strain F344/DuCrj, males, in feed, site: urinary bladder, lesion: transitional-cell carcinoma, dosed 104 weeks, study length 104 weeks
  TD50: 357 mg/kg/day
rat, strain F344/DuCrj, males, in feed, site: urinary bladder, lesion: transitional-cell papilloma, dosed 104 weeks, study length 104 weeks
  TD50: 511 mg/kg/day

## O=[O+][O-]
mouse, strain B6C3F1, females, inhaled, site: lung, lesion: alveolar/bronchiolar adenoma + alveolar/bronchiolar carcinoma, dosed 105 weeks, study length 105 weeks
  TD50: 1.88 mg/kg/day
mouse, strain B6C3F1, females, inhaled, site: lung, lesion: alveolar/bronchiolar adenoma + alveolar/bronchiolar carcinoma, dosed 130 weeks, study length 130 weeks
  TD50: 2.09 mg/kg/day
mouse, strain B6C3F1, females, inhaled, site: lung, lesion: alveolar/bronchiolar adenoma, dosed 130 weeks, study length 130 weeks
  TD50: 1.78 mg/kg/day
mouse, strain B6C3F1, females, inhaled, site: lung, lesion: alveolar/bronchiolar carcinoma, dosed 105 weeks, study length 105 weeks
  TD50: 2.75 mg/kg/day
mouse, strain B6C3F1, females, inhaled, site: uterus, lesion: endometrial stromal polyp, dosed 105 weeks, study length 105 weeks
  TD50: 6.49 mg/kg/day
mouse, strain B6C3F1, males, inhaled, site: any site (literature study), lesion: several types, types named in the paper, dosed 104 weeks, study length 104 weeks
  TD50: 0.997 mg/kg/day
mouse, strain B6C3F1, males, inhaled, site: any site (literature study), lesion: several types, types named in the paper, dosed 130 weeks, study length 130 weeks
  TD50: 1.54 mg/kg/day
mouse, strain B6C3F1, males, inhaled, site: liver + mesentery + spleen, lesion: hemangiosarcoma, dosed 104 weeks, study length 104 weeks
  TD50: 0.314 mg/kg/day
mouse, strain B6C3F1, males, inhaled, site: liver, lesion: hepatocellular adenoma + hepatoblastoma + hepatocellular carcinoma, dosed 104 weeks, study length 104 weeks
  TD50: 1.68 mg/kg/day
mouse, strain B6C3F1, males, inhaled, site: liver, lesion: hepatocellular adenoma + hepatoblastoma + hepatocellular carcinoma, dosed 130 weeks, study length 130 weeks
  TD50: 2.02 mg/kg/day
mouse, strain B6C3F1, males, inhaled, site: lung, lesion: alveolar/bronchiolar adenoma + alveolar/bronchiolar carcinoma, dosed 104 weeks, study length 104 weeks
  TD50: 0.894 mg/kg/day
mouse, strain B6C3F1, males, inhaled, site: lung, lesion: alveolar/bronchiolar adenoma + alveolar/bronchiolar carcinoma, dosed 130 weeks, study length 130 weeks
  TD50: 0.961 mg/kg/day
mouse, strain B6C3F1, males, inhaled, site: lung, lesion: alveolar/bronchiolar carcinoma, dosed 130 weeks, study length 130 weeks
  TD50: 0.633 mg/kg/day
rat, strain Fischer 344, females, inhaled, site: any site (literature study), lesion: several types, types named in the paper, dosed 104 weeks, study length 104 weeks
  carcinogen call: negative (inactive)
rat, strain Fischer 344, females, inhaled, site: any site (literature study), lesion: several types, types named in the paper, dosed 124 weeks, study length 124 weeks
  carcinogen call: negative (inactive)
rat, strain Fischer 344, males, inhaled, site: any site (literature study), lesion: several types, types named in the paper, dosed 105 weeks, study length 105 weeks
  TD50: 1.2 mg/kg/day
rat, strain Fischer 344, males, inhaled, site: any site (literature study), lesion: several types, types named in the paper, dosed 122 weeks, study length 124 weeks
  TD50: 0.138 mg/kg/day (inactive)
rat, strain Fischer 344, males, inhaled, site: liver, lesion: hepatocellular adenoma + hepatoblastoma + hepatocellular carcinoma, dosed 122 weeks, study length 124 weeks
  TD50: 2.41 mg/kg/day
rat, strain Fischer 344, males, inhaled, site: thyroid gland, lesion: c-cell adenoma + c-cell carcinoma, dosed 105 weeks, study length 105 weeks
  TD50: 0.0156 mg/kg/day (inactive)
rat, strain Fischer 344, males, inhaled, site: thyroid gland, lesion: c-cell adenoma, dosed 105 weeks, study length 105 weeks
  TD50: 0.019 mg/kg/day
rat, strain Sprague-Dawley, males, inhaled, site: lung, lesion: adenoma, dosed 86 weeks, study length 86 weeks
  TD50: 0.204 mg/kg/day

## OCN(CO)c1nc(N(CO)CO)nc(N(CO)CO)n1
rat, strain Sprague-Dawley, females, in feed, site: any site (literature study), lesion: several types, types named in the paper, dosed 44 weeks, study length 66 weeks
  TD50: 6.82 mg/kg/day
rat, strain Sprague-Dawley, females, in feed, site: kidney/pelvis, lesion: transitional-cell carcinoma, dosed 44 weeks, study length 66 weeks
  TD50: 33.6 mg/kg/day
rat, strain Sprague-Dawley, females, in feed, site: mammary gland, lesion: adenocarcinoma, dosed 44 weeks, study length 66 weeks
  TD50: 10.2 mg/kg/day
rat, strain Sprague-Dawley, females, in feed, site: mammary gland, lesion: several types, types named in the paper, dosed 44 weeks, study length 66 weeks
  TD50: 11.9 mg/kg/day

## NNCc1ccccc1
mouse, strain Swiss albino, females, in drinking water, site: liver, lesion: angiosarcoma, dosed 121 weeks, study length 121 weeks
  TD50: 252 mg/kg/day (inactive)
mouse, strain Swiss albino, females, in drinking water, site: liver, lesion: several types, types named in the paper, dosed 121 weeks, study length 121 weeks
  TD50: 304 mg/kg/day
mouse, strain Swiss albino, females, in drinking water, site: lung, lesion: several types, types named in the paper, dosed 121 weeks, study length 121 weeks
  TD50: 85.3 mg/kg/day
mouse, strain Swiss albino, males, in drinking water, site: liver, lesion: several types, types named in the paper, dosed 100 weeks, study length 100 weeks
  TD50: 86.2 mg/kg/day
[1]
  TD50: 711 mg/kg/day (inactive)

## CCCCNN
mouse, strain Swiss albino, females, in drinking water, site: lung, lesion: adenocarcinoma, dosed 119 weeks, study length 119 weeks
  TD50: 50.6 mg/kg/day
mouse, strain Swiss albino, females, in drinking water, site: lung, lesion: adenoma, dosed 119 weeks, study length 119 weeks
  TD50: 19.3 mg/kg/day
mouse, strain Swiss albino, females, in drinking water, site: lung, lesion: several types, types named in the paper, dosed 119 weeks, study length 119 weeks
  TD50: 18.4 mg/kg/day
[1]
  TD50: 8.4 mg/kg/day
mouse, strain Swiss albino, males, in drinking water, site: lung, lesion: several types, types named in the paper, dosed 100 weeks, study length 100 weeks
  TD50: 9.03 mg/kg/day

## CCCCCCc1ccc(O)cc1O
mouse, strain B6C3F1, females, by gavage, site: any site (literature study), lesion: several types, types named in the paper, dosed 102 weeks, study length 104 weeks
  carcinogen call: negative (inactive)
mouse, strain B6C3F1, males, by gavage, site: Harderian gland, lesion: adenoma, NOS + carcinoma, NOS, dosed 102 weeks, study length 104 weeks
  TD50: 368 mg/kg/day
mouse, strain B6C3F1, males, by gavage, site: adrenal medulla, lesion: pheochromocytoma, dosed 102 weeks, study length 104 weeks
  TD50: 519 mg/kg/day
rat, strain Fischer 344, females, by gavage, site: any site (literature study), lesion: several types, types named in the paper, dosed 103 weeks, study length 104 weeks
  carcinogen call: negative (inactive)
rat, strain Fischer 344, females, by gavage, site: liver, lesion: hepatocellular adenoma + hepatocellular carcinoma + neoplastic nodule, dosed 103 weeks, study length 104 weeks
  TD50: 128000 mg/kg/day
rat, strain Fischer 344, males, by gavage, site: any site (literature study), lesion: several types, types named in the paper, dosed 103 weeks, study length 104 weeks
  TD50: 615 mg/kg/day (inactive)
rat, strain Fischer 344, males, by gavage, site: liver, lesion: hepatocellular adenoma + hepatocellular carcinoma + neoplastic nodule, dosed 103 weeks, study length 104 weeks
  TD50: 1530 mg/kg/day

## C[C@]12CCC(=O)C=C1CC[C@@H]1[C@@H]2[C@@H](O)C[C@@]2(C)[C@H]1CC[C@]2(O)C(=O)CO
rat, strain Sprague-Dawley, females, by gavage, site: any site (literature study), lesion: malignant tumor, dosed 110 weeks, study length 110 weeks
  carcinogen call: negative (inactive)
rat, strain Sprague-Dawley, males, by gavage, site: any site (literature study), lesion: malignant tumor, dosed 104 weeks, study length 104 weeks
  carcinogen call: negative (inactive)

## CNC[C@H](O)c1ccc(O)c(O)c1
mouse, strain B6C3F1, females, inhaled, site: liver, lesion: hepatocellular adenoma + hepatocellular carcinoma + neoplastic nodule, dosed 104 weeks, study length 107 weeks
  TD50: 9.74 mg/kg/day
mouse, strain B6C3F1, females, inhaled, site: uterus, lesion: endometrial stromal polyp + endometrial stromal sarcoma, dosed 104 weeks, study length 107 weeks
  TD50: 6.86 mg/kg/day
mouse, strain B6C3F1, females, inhaled, site: uterus, lesion: endometrial stromal polyp, dosed 104 weeks, study length 107 weeks
  TD50: 8.52 mg/kg/day
rat, strain Fischer 344, males, inhaled, site: any site (literature study), lesion: several types, types named in the paper, dosed 103 weeks, study length 105 weeks
  TD50: 4.7 mg/kg/day

## CCCCCCCCCCC(C)c1ccc(S(=O)(=O)O)cc1 (centres undefined)
rat, strain Slc-Wistar, females, in feed, site: preputial gland, lesion: several types, types named in the paper, dosed 142 weeks, study length 148 weeks
  carcinogen call: negative (inactive)
rat, strain Slc-Wistar, males, in feed, site: preputial gland, lesion: several types, types named in the paper, dosed 127 weeks, study length 139 weeks
  carcinogen call: negative (inactive)
